Results as given in paper PMC11784013, “Potassium molybdate blocks APN-dependent coronavirus entry by degrading receptor via PIK3C3-mediated autophagy” (Journal of Virology, 2024).
“Also recorded” adds a separate entry of the source.

Assays:
ATG14 = ATG14 expression in ST cells (western blot); format: cell-based, porcine; conditions: Fig. S8A, PM 10 mM, PRCV 0.1 MOI, 16 h
Experimental: Fig 7 PM degrades APN expression via activating PIK3C3-mediated autophagy. (A) Graphical representation for autophagy and the targets of different autophagy inhibitors. (B) ST cells were treated with PM (10 mM) in the presence and absence of 3-MA (20 mM), SBI0206965 (20 µM), and 3BDO (30 µM) for 16 h, and the APN expression was detected by western blot. (C) ST cells were treated with PM (10 mM) in the presence and absence of 3-MA (20 mM) for 16 h, and the APN, PIK3C3, ATG14, BECN1, P62, and LC3 were measured by western blot. (D) ST cells were transfected with PIK3C3 siRNA-1, PIK3C3 siRNA-2, PIK3C3 siRNA-3, PIK3C3 siRNA-4, and NC siRNA for 24 h, the PIK3C3 expression was detected by western blot. […] The APN, PIK3C3, ATG14, BECN1, P62, and LC3 were detected by western blot. […] (G) PIK3C3 was detected by western blot in WT ST cells and PIK3C3 KO ST cells. (H) WT ST cells and PIK3C3 KO ST cells were treated with PM (10 mM) for 16 h and then the APN, PIK3C3, ATG14, BECN1, P62, and LC3 were detected by western blot. […] The APN, PIK3C3, P62, and LC3 were detected by western blot. All western blot results were calculated by Image J. All experiments were performed in triplicate.
Fig. S8. […] Then the APN, PIK3C3, ATG14, BECN1, P62, PRCV N and LC3 were detected by western blot (A), and viral titers and PRCV N mRNA level were determined by TCID50 (B) and RT-qPCR (C) . […]

[1] = system: autophagosomes and autolysosomes; assay: Autophagic flux (RFP-EGFP-LC3B sensor) and transmission electron microscopy in ST cells; format: cell-based, swine
Experimental: Fig 6 PM degrades APN by autophagy-lysosome pathway. (A) ST cells were treated with PM (10 mM) and infected with TGEV (0.1 MOI) in the presence and absence of MG132 (20 µM), 3-MA (20 mM), and Z-VAD-FMK (20 µM) for 16 h. The APN expression and TGEV N were detected by western blot. (B) ST cells were treated with PM (10 mM) at 2, 4, 8, and 16 h, autophagy markers P62 and LC3, and APN were measured by western blot. (C) ST cells were transfected with RFP-EGFP-LC3B for 12 h and then treated with PM (10 mM) or H2O for 36 h. The fluorescence of GFP and RFP was detected by confocal microscopy, scale bar: 5 µm. (D) Quantification of autophagosomes (Merge) and autolysosomes (RFP) from C using Image J software. (E) ST cells were treated with PM or H2O for 24 h. The autophagosomes (yellow arrow) and autolysosomes (asterisk) were detected by transmission electron microscope, scale bar: 2 µm. (F) The number of autophagosomes (yellow arrow) and autolysosomes (asterisk) was quantified. All western blot results were calculated by Image J. Results are presented as mean ± SD of data from three independent experiments. ***, P ≤ 0.001.

PDCoV = PDCoV infection of PK1 cells (RT-qPCR); format: cell-based; conditions: PM 10 mM, PDCoV 0.1 MOI, 17 h
Experimental: Fig. S1. […] (A) The PK1 cells, pretreated with PM (10mM) concentrations for 1 h were infected with PDCoV (0.1 MOI) for 1 h and were again treated with PM at 37 °C for 17 h.
The cell samples were collected and examined by RT-qPCR . Results are presented as mean ± SD of data from three independent experiments ***, P≤ 0.001.
(also on this page, place not known: RT-qPCR. + - + + 2 3 4 5 6Viral load(log copies/ul) *** PDCoV PM PDCoV M)
(1 picture or pasted object on this page, not shown here)

APN = APN expression in BHK-21 cells (western blot); format: cell-based, mouse; conditions: for APN level, western blot quantified by Image J, relative to no PM (=1): PM 10 mM
Experimental: Fig. S6. PM degrades human and mouse-derived APN expression. (A and B) HEK-293T cells (A) and […] (B) were treated with PM (10 mM) for 8 h or 16 h respectively, APN expression was measured by western blot. All western blot results were calculated by Image J. All experiments were […]
PM(10mM) - + - + PM(10mM) - + - + […]

SMILES: [K+].[K+].[O]=[Mo](=[O])([O-])[O-] [PM, potassium molybdate]
- ATG14 level, western blot, relative to WT without PM (=1) (ATG14; PIK3C3 KO ST cells): 1.03
- ATG14 level, western blot, relative to WT without PM (=1) (ATG14; WT ST cells): 1.07
- autophagic flux (RFP-EGFP-LC3B sensor) ([1]; PM 10 mM, 36 h, confocal microscopy): increased RFP signals (autolysosomes) and merge signals (autophagosomes)
- autophagosomes and autolysosomes by transmission electron microscopy ([1]; PM vs H2O, 24 h): formed more autophagosomes
- PDCoV infection (PDCoV): inhibits PDCoV infection; also recorded: effectively restricted
- APN level, western blot quantified by Image J, relative to no PM (=1) (APN; 8 h): 0.38
- APN level, western blot quantified by Image J, relative to no PM (=1) (APN; 16 h): 0.20
- mouse-derived APN expression (APN; PM for 8 and 16 h): also decreased human and mouse-derived APN expression
